Calls of active or inactive are those of the source. Where a SMILES comes first, the peptide text is derived from it. [ ]: non-standard residue; d: D form. The star is where a group is joined. ξ: configuration not given here. Cbz = O=C(OCc1ccccc1)*; ξL = CC(C)CC(N)C(=O)O; ξP = O=C(O)C1CCCN1

Targets include Cytochrome P450 3A4 (Homo sapiens, UniProt P08684); Cytochrome P450 2C9 (Homo sapiens, UniProt P11712); Cytochrome P450 2D6 (Homo sapiens, UniProt P10635).
The next experiment deals with Cytochrome P450 2C19 (Homo sapiens, UniProt P33261). Put plainly: Cytochrome panel assay with activity outcomes. Panel member name: p450-cyp2c19 Compounds with AC50 equal or less than 10 uM are considered active. Format: functional. Conditions: read-out: AC50.
Experiment [1] has as its system Streptococcus sp. 'group A'. The experiment in a line: Streptococcus pyogenes SK(-)GAS viability under kanamycin – luminescence, BacTiterGlo, confirmation, counter-screen for streptokinase expression inhibitor project, dose response (AID 1900). Format: functional, organism-based. A general note: The purpose of a counterscreen is to sort out artefacts and off-target activity.

For a further experiment, the system named is Streptococcus. Put plainly: GAS UMAA2166 growth inhibition – luminescence, BacTiterGlo, counter-screen for streptokinase expression inhibitor project, dose response (AID 1915).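 Note: potency for reduction of bacterial viability or growth.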 Format: functional, organism-based.
For experiment [2], the target named is T1, Heat shock factor protein 1 (Mus musculus, UniProt P38532).
T1 sequence (P38532 whole entry): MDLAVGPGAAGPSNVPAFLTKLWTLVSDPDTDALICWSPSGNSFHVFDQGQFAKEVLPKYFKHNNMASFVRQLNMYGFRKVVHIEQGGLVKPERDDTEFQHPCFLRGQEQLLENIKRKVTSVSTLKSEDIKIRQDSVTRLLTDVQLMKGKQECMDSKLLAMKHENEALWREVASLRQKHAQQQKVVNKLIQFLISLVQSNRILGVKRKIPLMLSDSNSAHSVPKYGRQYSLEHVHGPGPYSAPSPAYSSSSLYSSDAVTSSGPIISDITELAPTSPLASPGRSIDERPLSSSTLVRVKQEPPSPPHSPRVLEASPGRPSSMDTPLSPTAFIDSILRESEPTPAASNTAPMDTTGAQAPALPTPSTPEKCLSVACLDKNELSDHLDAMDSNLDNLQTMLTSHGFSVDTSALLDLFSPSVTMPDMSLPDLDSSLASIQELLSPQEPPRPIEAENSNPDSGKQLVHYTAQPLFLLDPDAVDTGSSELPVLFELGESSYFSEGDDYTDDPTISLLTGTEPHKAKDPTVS
Put plainly: decrease of HSF1-responsive luciferase luminescence – cell-based, NIH3T3, dose retest, confirmation (AID 2382).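 Note: NIH3T3 fibroblasts with HSF1-driven luciferase reporter stressed by proteasome inhibitor MG132; luminescence from HSF1-driven luciferase expression after 8 hours of MG132 stress.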 Format: functional.

A short description of experiment [3]: NIH3T3 cell viability loss – ATP luminescence, mouse fibroblasts, counter-screen, dose response (AID 2010).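 Note: cells exposed to compound for about 90 hours before reading.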 Format: functional, cell-based.
Experiment [4] is described as follows: Luminescence Cell-Based Dose Retest to Confirm Inhibitors of Cancer Stem Cells. [Related pubchem assays (depositor defined):AID2717, AID2721]. Format: functional. The settings on record: Homo sapiens.
Experiment [5] is described as follows: Trypanosoma cruzi growth suppression in host cells – NIH3T3 host cells, beta-gal luminescence, confirmation (AID 2044).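 Note: intracellular parasites grown in NIH/3T3 mouse fibroblasts as host cells; luminescent beta-galactosidase reporter signal from transgenic T. cruzi replicating inside host cells; inhibitors lower the luminescence signal.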 Format: functional, cell-based.
A further experiment concerns INS1. Put plainly: INS-1E survival protection against cytokine death – cell-based, luminescence, retest, dose response (AID 449756).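 Note: cell death triggered by IL-1 beta plus TNF-alpha plus IFN-gamma mixture; protective hits raise ATP signal compared with cytokine alone wells.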 Conditions: Rattus norvegicus. Format: functional.
In the next experiment the target is Paired box protein Pax-8 (Homo sapiens, UniProt Q06710). The experiment in a line: PAX8 transcriptional activity inhibition in RMG-I – RMG-I cells, luciferase, cherry-pick, dose response (AID 687027).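 Note: luciferase reporter driven by Pax8 target thyroperoxidase promoter measured by SteadyGlo luminescence.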 Format: functional, cell-based.
Sequence of Paired box protein Pax-8 (Q06710 whole entry): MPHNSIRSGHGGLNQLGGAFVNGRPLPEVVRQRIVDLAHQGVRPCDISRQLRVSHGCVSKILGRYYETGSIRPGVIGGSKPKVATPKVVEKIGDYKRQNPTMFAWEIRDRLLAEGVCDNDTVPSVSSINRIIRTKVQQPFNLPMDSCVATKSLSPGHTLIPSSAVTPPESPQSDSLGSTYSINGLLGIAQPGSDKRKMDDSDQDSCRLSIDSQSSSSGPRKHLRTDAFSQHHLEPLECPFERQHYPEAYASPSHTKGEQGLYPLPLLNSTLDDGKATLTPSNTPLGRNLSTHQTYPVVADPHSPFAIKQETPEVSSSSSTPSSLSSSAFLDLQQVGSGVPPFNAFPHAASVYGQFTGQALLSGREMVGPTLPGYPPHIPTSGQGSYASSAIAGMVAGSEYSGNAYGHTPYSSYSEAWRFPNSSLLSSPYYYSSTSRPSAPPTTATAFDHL

Sequence of Cytochrome P450 2C19 (P33261 whole entry): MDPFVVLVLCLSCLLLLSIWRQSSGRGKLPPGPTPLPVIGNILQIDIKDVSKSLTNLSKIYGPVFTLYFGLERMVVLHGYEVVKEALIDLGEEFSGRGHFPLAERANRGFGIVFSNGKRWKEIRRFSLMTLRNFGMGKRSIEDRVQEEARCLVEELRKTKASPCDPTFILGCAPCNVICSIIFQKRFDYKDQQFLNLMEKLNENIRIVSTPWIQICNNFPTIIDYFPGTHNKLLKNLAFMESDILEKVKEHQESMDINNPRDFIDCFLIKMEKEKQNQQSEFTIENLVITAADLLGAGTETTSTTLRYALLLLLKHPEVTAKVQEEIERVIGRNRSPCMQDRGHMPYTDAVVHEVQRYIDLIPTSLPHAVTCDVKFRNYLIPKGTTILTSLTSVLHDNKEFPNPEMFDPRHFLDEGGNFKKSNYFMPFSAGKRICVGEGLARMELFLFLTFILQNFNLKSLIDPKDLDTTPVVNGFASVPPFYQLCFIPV
Sequence of Cytochrome P450 2C9 (P11712 whole entry): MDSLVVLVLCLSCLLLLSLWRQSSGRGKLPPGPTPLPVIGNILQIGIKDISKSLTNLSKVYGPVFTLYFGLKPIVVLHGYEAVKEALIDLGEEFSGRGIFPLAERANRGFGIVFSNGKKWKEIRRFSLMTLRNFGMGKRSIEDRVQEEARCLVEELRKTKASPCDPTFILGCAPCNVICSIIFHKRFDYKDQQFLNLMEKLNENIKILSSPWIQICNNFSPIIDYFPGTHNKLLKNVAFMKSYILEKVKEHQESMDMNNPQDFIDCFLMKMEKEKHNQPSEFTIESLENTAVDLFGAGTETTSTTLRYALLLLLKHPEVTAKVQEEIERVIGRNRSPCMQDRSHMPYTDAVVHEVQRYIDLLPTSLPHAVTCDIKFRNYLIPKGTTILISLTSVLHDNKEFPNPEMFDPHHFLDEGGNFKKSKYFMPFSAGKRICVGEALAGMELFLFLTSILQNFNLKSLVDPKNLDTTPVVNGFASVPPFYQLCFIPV
Sequence of Cytochrome P450 3A4 (P08684 whole entry): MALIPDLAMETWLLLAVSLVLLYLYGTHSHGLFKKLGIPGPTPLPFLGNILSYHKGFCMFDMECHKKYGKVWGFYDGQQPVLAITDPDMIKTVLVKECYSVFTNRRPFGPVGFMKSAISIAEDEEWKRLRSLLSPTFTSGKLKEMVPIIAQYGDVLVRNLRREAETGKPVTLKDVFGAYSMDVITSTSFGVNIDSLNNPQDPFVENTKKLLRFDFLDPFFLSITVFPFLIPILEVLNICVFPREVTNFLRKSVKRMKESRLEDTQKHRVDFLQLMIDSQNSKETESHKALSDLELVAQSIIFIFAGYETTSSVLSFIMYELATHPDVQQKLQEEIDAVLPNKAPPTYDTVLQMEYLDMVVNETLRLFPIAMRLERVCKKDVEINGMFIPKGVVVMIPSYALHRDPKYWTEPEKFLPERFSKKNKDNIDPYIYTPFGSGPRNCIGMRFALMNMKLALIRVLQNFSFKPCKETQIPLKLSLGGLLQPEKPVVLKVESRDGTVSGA
Sequence of Cytochrome P450 2D6 (P10635 whole entry): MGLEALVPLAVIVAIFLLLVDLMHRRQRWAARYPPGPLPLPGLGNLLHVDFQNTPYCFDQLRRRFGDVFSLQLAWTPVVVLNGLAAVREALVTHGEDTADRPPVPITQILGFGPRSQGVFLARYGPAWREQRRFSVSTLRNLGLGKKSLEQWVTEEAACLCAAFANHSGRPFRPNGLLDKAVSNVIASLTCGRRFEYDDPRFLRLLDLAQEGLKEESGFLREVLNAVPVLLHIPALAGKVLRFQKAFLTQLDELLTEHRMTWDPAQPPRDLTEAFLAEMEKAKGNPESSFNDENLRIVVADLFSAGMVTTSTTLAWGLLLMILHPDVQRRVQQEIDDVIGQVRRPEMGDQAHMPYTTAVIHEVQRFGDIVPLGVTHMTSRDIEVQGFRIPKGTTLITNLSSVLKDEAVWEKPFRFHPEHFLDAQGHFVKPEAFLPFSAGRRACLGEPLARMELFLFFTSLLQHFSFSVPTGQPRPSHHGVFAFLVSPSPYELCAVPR

In general, AC50 refers to the midpoint of the concentration-response curve, whichever way the signal moves. With `O=S(=O)(NCc1cc(-c2ccc(Cl)cc2)no1)c1ccc(Cl)cc1`, the AC50 on Cytochrome P450 3A4 was 25.1 µM (inconclusive).
In the case of `COCCn1c(=O)c(-c2cccs2)nc2cncnc21`, the results for the AC50 on Cytochrome P450 2C9 and at Cytochrome P450 2C19 were 20 µM (inconclusive) and 25.1 µM (inconclusive), respectively.
As for `CCNc1ncc2nc(-c3cc(F)cc(F)c3)c(=O)n(-c3ccccc3)c2n1`, the AC50 at Cytochrome P450 3A4 was 10 µM (inconclusive).
Consider `COc1cc2c(cc1OC)C(C(=O)N1CCN(c3ccccn3)CC1)C(c1cccs1)N(C)C2=O` (stereo unspecified), for which, on Cytochrome P450 2C9, the AC50 was 17.8 µM (inconclusive).
The EC50 is the concentration at which the effect is half-maximal. Regarding `N#CCC(=O)Nc1ccc(C(=O)OC(C(=O)Nc2cc(C(F)(F)F)ccc2Cl)c2ccccc2)cc1` (stereo unspecified), the concentration for a half-maximal effect (EC50) is 2.31 µM (active) in experiment [1] and 6.92 µM (active) in the experiment with Streptococcus.
Consider `COC(=O)CCN1CCc2cc(N=Nc3ccc([N+](=O)[O-])cc3)ccc21`, for which the EC50 in [2] was 40.1 µM (active).
With `COc1ccc(Nc2nc(-c3cccc([N+](=O)[O-])c3)nc3ccccc23)cc1`, the EC50 in experiment [3] is > 60 µM (not active); in [5], 1.71 µM (active). In addition, in [4], the half-maximal activity concentration (AC50) is 2.83 µM (active).
In the case of `C=CCNC(=O)c1csc(-c2ccccc2)n1`, the concentration at half-maximal activity (AC50) on Cytochrome P450 3A4 is 28.2 µM (inconclusive).
Take `c1csc(CNc2cc(-c3ccoc3)ncn2)c1`: the AC50 on Cytochrome P450 3A4 was 25.1 µM (inconclusive).
With `Sc1nnc(-c2ccc(Cl)cc2)n1Cc1ccccc1`, in experiment [4], the concentration at half-maximal activity (AC50) was 0.734 µM (active).
On to `Cc1cccc(-n2c(S)nnc2Cn2nc(C)c([N+](=O)[O-])c2C)c1`, for which the concentration at half-maximal activity (AC50) on Cytochrome P450 2C9 is 7.08 µM (inconclusive); at Cytochrome P450 2C19, 20 µM (inconclusive).
With `CC1(C(=O)NCCCNc2ncc(C(F)(F)F)cc2Cl)C=CC2(CCCCC2)N1C(=O)c1ccccc1` (stereo unspecified), the EC50 in experiment [2] is > 195 µM (not active).
`CCc1cc2c(nc1CC)CCN(CC/C(C)=N/O[C@@H](C)CN1CCCc3nc(C)c(C)cc31)C2`: the AC50 on Cytochrome P450 3A4 is 3.16 µM (inconclusive).
On the same count and under the same terms, to `Clc1ccc(C2=CCC[C@H]3CC[C@@H]2N3)cn1` belongs 39.8 µM (inconclusive).
Consider `O=C(Nc1ccc(F)cc1)c1nc(O)c2nnn(Cc3cccc4ccccc34)c2n1`, for which the EC50 in [1] was 2.58 µM (active); in the experiment with Streptococcus, 37.2 µM (active).
For the compound `O=C(Nc1nnc(S(=O)(=O)N2CCCCCC2)s1)c1ccccc1Cl`, in experiment [2], the half-maximal effective concentration (EC50) was > 195 µM (not active).
Still for that read-out and setting: in the case of `CC(C)(C)c1nc(N2CCN(C(=O)c3ccco3)CC2)c2nnn(Cc3ccccc3)c2n1` it was > 195 µM (not active).
For the compound `C[C@@]1(C(=O)O)NCCc2cc(O)c(O)cc21`, the AC50 on Cytochrome P450 3A4 is 31.6 µM (inconclusive).
With `CCCCCCSc1cccc(-c2nc3ccc(C)cn3c2NCc2ccccc2)c1`, in experiment [4], the half-maximal activity concentration (AC50) was 3.14 µM (active).
Consider `COCCn1c(=O)[nH]c2cc(C(=O)NC3CCCCCC3)ccc2c1=O`, for which, in experiment [2], the EC50 is > 195 µM (not active).
For `COC(=O)C1CCN(C(=O)c2sc3nc(-c4ccccc4)cn3c2C)CC1`, the concentration for a half-maximal effect (EC50) in [2] is > 195 µM (not active).
Regarding `Cc1ccc(C(=O)CSc2nc(-c3ccccc3)ccc2C#N)cc1`, the AC50 in experiment [4] was 3.28 µM (active).
In the case of `C/C(CCN1CCc2nc(-c3ccccc3)c(-c3ccccc3)cc2C1)=N\O[C@@H](C)CN1CCCc2nc(C)c(C)cc21`, the AC50 on Cytochrome P450 2D6 is 3.16 µM (inconclusive); on Cytochrome P450 3A4, 3.98 µM (inconclusive).
`O=C(NCc1ccccc1Cl)C1CCN(S(=O)(=O)N2CCCC2)CC1`: the concentration for a half-maximal effect (EC50) in experiment [2] is recorded as > 195 µM (not active).
Take `O=C(CSc1nccn1-c1ccccc1)c1ccc(Cl)cc1`: the concentration at half-maximal activity (AC50) is 3.16 µM (inconclusive) at Cytochrome P450 2D6 and 3.98 µM (inconclusive) at Cytochrome P450 2C9.
Turning to `CC1CCCC(C)N1C(=O)CSc1ccc(-c2ccc3c(c2)OCCO3)nn1` (stereo unspecified), in experiment [2], the EC50 is given as > 195 µM (not active).
In the case of `O=C1Oc2ccccc2C2(O)C3CCCCCC3C12` (stereo unspecified), at Cytochrome P450 2C9, the AC50 was 22.4 µM (inconclusive).
Same read-out and setting: in the case of `O=C(O)[C@H]1CCc2ccc3ccccc3c2[C@H]1c1cccc2ccccc12` it was 7.94 µM (inconclusive).
As for `O=[N+]([O-])c1cccnc1N1CCCCC1`, the AC50 was 3.16 µM (inconclusive) at Cytochrome P450 2C9 and 0.00562 µM (inconclusive) at Cytochrome P450 2C19.
In the case of `C[C@H](CO)NC(=O)[C@H](C)[C@H]1C[C@]1(C)[C@H](NC(=O)OCc1ccccc1)c1ccccc1`, the AC50 at Cytochrome P450 2D6 is 15.8 µM (inconclusive); on Cytochrome P450 2C9, 25.1 µM (inconclusive).
Consider `COc1cc(N)ccc1C(=O)O`, for which the concentration for a half-maximal effect (EC50) in experiment [2] is > 195 µM (not active).
On to `COc1ccc(-c2cc(C(=O)Nc3nc4c(C)cccc4s3)c3ccccc3n2)cc1OC`, for which the half-maximal activity concentration (AC50) on Cytochrome P450 3A4 was 11.2 µM (inconclusive).
With `C[C@H]1CC[C@@]2(C)[C@@H](CC[C@@H]3[C@@H]2CC[C@]2(C)[C@@H](O)CC[C@@H]32)C1`, the results for the EC50 (in experiment [1]; in the experiment with Streptococcus) were 0.643 µM (active) and 2.65 µM (active), respectively.
On to `CN(C(=O)C1CCOC1)c1nnc(-c2ccncc2)s1` (stereo unspecified), for which the EC50 in experiment [2] is given as > 195 µM (not active).
Take `O=Nc1ccc(NOC(=O)c2ccc(Br)cc2)cc1`: the AC50 at Cytochrome P450 2C9 was 25.1 µM (inconclusive).
With `C=CCSc1nn2c(=O)c3ccccc3nc2s1`, the concentration at half-maximal activity (AC50) at Cytochrome P450 2D6 and on Cytochrome P450 2C9 was 25.1 µM (inconclusive) in each case.
With `CC(=O)Nc1ccc(C(=O)NNC(=O)CCc2ccccc2)cc1`, the concentration at half-maximal activity (AC50) at Cytochrome P450 2C9 was 39.8 µM (inconclusive).
In the case of `CC(Nc1nc(-c2ccc(Cl)cc2)cs1)c1nc2cc(Cl)c(N3CCCCC3)cc2n1CCOCCO` (stereo unspecified), the concentration at half-maximal activity (AC50) in experiment [4] was 1.1 µM (active).
As to `COc1ccc(-c2sc3ccccc3c2-c2ccc(OCCN3CCCCC3)cc2)cc1`, the concentration at half-maximal activity (AC50) is 8.34 µM (active) in the experiment on INS1 and 0.914 µM (active) in experiment [4].
For the compound `CCOc1ccc(N2C(=O)CN=C2Nc2ccccc2Cl)cc1`, the concentration at half-maximal activity (AC50) on Cytochrome P450 3A4 was 15.8 µM (inconclusive); on Cytochrome P450 2C19 it was 11.2 µM (inconclusive).
On to `CC(=CCOc1ccc2ccc(=O)oc2c1)C1=CC(=O)C(C)(C)O1`, for which, on Paired box protein Pax-8, the AC50 is 4.95 µM (active).
Consider `C[C@@H]1CCCCO[C@H](CN(C)C(=O)Cc2ccccc2)[C@H](C)CN([C@@H](C)CO)C(=O)c2cc(NC(=O)Nc3ccc(C(F)(F)F)cc3)ccc2O1`, for which the AC50 at Paired box protein Pax-8 is 8.05 µM (active).
`O=C(C[C@H]1CC[C@H]2[C@@H](COC[C@@H](O)CN2S(=O)(=O)c2ccccc2Cl)O1)N1CCC(Cc2ccccc2)CC1`: the concentration at half-maximal activity (AC50) on Paired box protein Pax-8 was 23.7 µM (active).
For `Cc1ccc(S(=O)(=O)N(CC(=O)N/N=C/c2ccc(F)cc2)c2cccc3cccnc23)cc1`, the AC50 on Cytochrome P450 2C9 is 1.58 µM (inconclusive).
For `Oc1ccccc1/C=N/Nc1nnn[nH]1`, in [2], the concentration giving a half-maximal response (EC50) is > 195 µM (not active).
Same read-out and setting: to `CC(C)NC(=O)CC(=O)N/N=C\c1ccccc1C(=O)O` belongs > 195 µM (not active).
With `C/C(=N/NC(=O)Cc1cccn1C)c1ccccc1`, the AC50 on Cytochrome P450 2C9 was 25.1 µM (inconclusive).
On the same count and under the same terms, in the case of `CCOC(=O)C1=C(N)n2c(s/c(=C/c3ccccc3)c2=O)=C(C(=O)OCC)C1c1ccccc1` (stereo unspecified) it was 2.82 µM (inconclusive).
For the compound `C/C(CC(=O)Nc1ccc(N(C)C)cc1)=N\NC(=O)Cc1csc(N)n1`, the EC50 in [2] is > 195 µM (not active).
As for `COc1cccc(-c2ccc3ncnc(NCc4cccs4)c3c2)c1`, the AC50 at Cytochrome P450 2C9 was 0.631 µM (inconclusive).
Consider `Ic1ccc(N2CCN(Cc3c[nH]c4ncccc34)CC2)cc1`, for which the AC50 at Cytochrome P450 3A4 was 39.8 µM (inconclusive).
As to `CC(C)CC(NC(=O)C1CCCN1C(=O)[C@@H](C)NC(=O)OCc1ccccc1)C(=O)NCC(N)=O` (stereo partly specified) (Cbz-[dA][ξP][ξL]G-NH2), the 50% effective concentration (EC50) in [2] is > 195 µM (not active).

(Values after ChEMBL document CHEMBL1201862, “PubChem BioAssay data set” (2004).)
